# Measurements published in patent publication US12516046B2, “2-oxo-oxazolidine-5-carboxamides as NAV1.8 inhibitors” (Merck Sharp & Dohme LLC, priority 2020, dated 2026).
# Target: human Nav1.8 (Homo sapiens (Human), UniProt Q9Y5Y9)
# Assay: Nav1.8 Qube® Assay (automated 384-well patch-clamp)
# Type: cell-based
# Conditions: human Nav1.8 channels stably expressed in HEK 293 cells
# Source text: Qube® Assay Experimental Procedure
# Sequence of human Nav1.8 (Q9Y5Y9 whole entry): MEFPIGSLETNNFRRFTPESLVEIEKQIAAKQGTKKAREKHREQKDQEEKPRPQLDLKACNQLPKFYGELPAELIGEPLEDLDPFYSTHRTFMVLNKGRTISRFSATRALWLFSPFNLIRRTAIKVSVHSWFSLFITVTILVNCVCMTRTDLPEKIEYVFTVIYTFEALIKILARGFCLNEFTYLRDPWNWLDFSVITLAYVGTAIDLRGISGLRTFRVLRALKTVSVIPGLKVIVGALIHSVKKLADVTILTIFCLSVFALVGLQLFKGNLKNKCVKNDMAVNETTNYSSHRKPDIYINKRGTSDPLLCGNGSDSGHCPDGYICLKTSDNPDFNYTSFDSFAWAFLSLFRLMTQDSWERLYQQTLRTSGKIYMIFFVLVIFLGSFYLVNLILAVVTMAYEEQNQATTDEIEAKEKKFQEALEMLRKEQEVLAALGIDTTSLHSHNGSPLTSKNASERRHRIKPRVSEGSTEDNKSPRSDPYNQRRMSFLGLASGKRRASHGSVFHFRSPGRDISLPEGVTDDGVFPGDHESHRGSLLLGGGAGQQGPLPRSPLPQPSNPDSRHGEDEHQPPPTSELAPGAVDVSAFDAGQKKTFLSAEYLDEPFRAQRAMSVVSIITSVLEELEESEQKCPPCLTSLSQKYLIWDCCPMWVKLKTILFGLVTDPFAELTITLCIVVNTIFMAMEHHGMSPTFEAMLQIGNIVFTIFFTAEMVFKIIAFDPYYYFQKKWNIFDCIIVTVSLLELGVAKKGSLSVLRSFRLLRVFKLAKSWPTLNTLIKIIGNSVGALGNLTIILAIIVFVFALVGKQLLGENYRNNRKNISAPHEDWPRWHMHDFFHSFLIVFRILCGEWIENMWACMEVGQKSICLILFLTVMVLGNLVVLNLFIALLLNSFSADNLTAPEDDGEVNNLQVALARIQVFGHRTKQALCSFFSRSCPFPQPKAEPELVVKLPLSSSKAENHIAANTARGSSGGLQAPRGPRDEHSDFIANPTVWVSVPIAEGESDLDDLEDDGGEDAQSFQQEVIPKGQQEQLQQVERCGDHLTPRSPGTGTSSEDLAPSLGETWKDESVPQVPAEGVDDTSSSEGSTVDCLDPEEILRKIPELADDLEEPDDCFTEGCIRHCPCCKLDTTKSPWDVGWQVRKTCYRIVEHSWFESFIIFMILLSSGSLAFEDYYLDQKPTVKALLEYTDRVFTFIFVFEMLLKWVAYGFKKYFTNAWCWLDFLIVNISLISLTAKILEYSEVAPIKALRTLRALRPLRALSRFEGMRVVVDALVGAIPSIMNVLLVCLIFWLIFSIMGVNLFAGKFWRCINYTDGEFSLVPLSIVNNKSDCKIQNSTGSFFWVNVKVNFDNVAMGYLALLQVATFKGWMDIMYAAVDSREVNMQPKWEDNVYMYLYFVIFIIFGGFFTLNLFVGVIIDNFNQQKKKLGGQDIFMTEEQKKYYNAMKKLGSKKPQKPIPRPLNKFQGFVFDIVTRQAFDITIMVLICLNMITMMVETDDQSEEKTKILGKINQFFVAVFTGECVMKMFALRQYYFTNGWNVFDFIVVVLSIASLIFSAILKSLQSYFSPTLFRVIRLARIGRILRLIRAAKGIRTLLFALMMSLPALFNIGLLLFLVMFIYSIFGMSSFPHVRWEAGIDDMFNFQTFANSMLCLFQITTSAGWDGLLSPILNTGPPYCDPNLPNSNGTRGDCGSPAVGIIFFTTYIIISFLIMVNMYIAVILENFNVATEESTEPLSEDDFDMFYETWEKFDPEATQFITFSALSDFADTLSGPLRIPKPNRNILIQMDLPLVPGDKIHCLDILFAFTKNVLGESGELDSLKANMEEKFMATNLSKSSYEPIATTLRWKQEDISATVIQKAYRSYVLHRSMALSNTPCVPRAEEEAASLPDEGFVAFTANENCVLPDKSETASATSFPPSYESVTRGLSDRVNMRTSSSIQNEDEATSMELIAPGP
row,Structure (SMILES),IC50 [nM]
1,"O=C1NC[C@@H](C(=O)NC(c2ccc(Cl)cc2)C23CCC(CC2)C3)O1 (single isomer, unassigned) [Example 3B, (S)-N-((R or S)-bicyclo[2.2.1]heptan-1-yl(4-chlorophenyl)methyl)-2-oxooxazolidine-5-carboxamide]",1460
2,"N#Cc1ccc(C(NC(=O)[C@@H]2CNC(=O)O2)c2cnc(C(F)(F)F)c(Cl)c2)cc1Cl (single isomer, unassigned) [Example 54B, (S)-N-((R or S)-(3-chloro-4-cyano-phenyl)(5-chloro-6-(trifluoromethyl)pyridin-3-yl)methyl)-2-oxooxazolidine-5-carboxamide]",7.2
3,"COc1ncccc1C(NC(=O)[C@@H]1CNC(=O)O1)c1ccc(F)c(Cl)c1 (single isomer, unassigned) [Example 58B, (S)-N-((R or S)-(3-chloro-4-fluorophenyl)(2-methoxypyridin-3-yl)methyl)-2-oxooxazolidine-5-carboxamide]",24
4,"O=C1NC[C@@H](C(=O)NC(c2ccc(Cl)cc2)c2cccc(C3CC3)c2)O1 (single isomer, unassigned) [Example 33B, (S)-N-((R or S)-(4-chlorophenyl)(3-cyclopropylphenyl)methyl)-2-oxooxazolidine-5-carboxamide]",9.4
5,"Cn1nc(C(F)(F)F)cc1C(NC(=O)[C@@H]1CNC(=O)O1)c1ccc(F)c(Cl)c1 (single isomer, unassigned) [Example 61A, (S)-N-((R or S)-(3-chloro-4-fluorophenyl)(1-methyl-3-(trifluoromethyl)-1H-pyrazol-5-yl)methyl)-2-oxooxazolidine-5-carboxamide]",4.6
6,"O=C1NC[C@@H](C(=O)NC(c2ccc(F)c(Cl)c2)c2ccc(Cl)cn2)O1 (single isomer, unassigned) [Example 14B, (S)-N-((R or S)-(3-chloro-4-fluorophenyl)(5-chloropyridin-2-yl)methyl)-2-oxooxazolidine-5-carboxamide]",34
7,"O=C1NC[C@@H](C(=O)NC(c2ccc(Cl)c(C(F)(F)F)n2)C2CCC(F)(F)CC2)O1 (single isomer, unassigned) [Example 63A, (S)-N-((R or S)-(5-chloro-6-(trifluoromethyl)pyridin-2-yl)(4,4-difluoro-cyclohexyl)methyl)-2-oxooxazolidine-5-carboxamide]",12
8,"O=C1NC[C@@H](C(=O)NC(Cc2ccc(Cl)cc2)c2ccc(OC(F)(F)F)cc2)O1 (stereo partly drawn) [Example 68, (5S)-N-(2-(4-chlorophenyl)-1-(4-(trifluoromethoxy)phenyl)ethyl)-2-oxooxazolidine-5-carboxamide]",246
9,"O=C1NC[C@@H](C(=O)NC(c2ccc(Cl)cc2)c2cccc(F)c2F)O1 (single isomer, unassigned) [Example 29B, (S)-N-((R or S)-(4-chlorophenyl)(2,3-difluorophenyl)methyl)-2-oxooxazolidine-5-carboxamide]",74
10,"O=C1NC[C@@H](C(=O)NC(c2ccc(Cl)cc2)c2nc(C(F)(F)F)cs2)O1 (single isomer, unassigned) [Example 12B, (S)-N-((R or S)-(4-chlorophenyl)(4-(trifluoromethyl)thiazol-2-yl)methyl)-2-oxooxazolidine-5-carboxamide]",323
11,"O=C1NC[C@@H](C(=O)NC(c2ccc(Cl)cc2)c2ccc(OC(F)F)nc2)O1 (stereo partly drawn) [Example 36, (5S)-N-((4-chlorophenyl)(6-(difluoromethoxy)pyridin-3-yl)methyl)-2-oxooxazolidine-5-carboxamide]",69
12,"O=C1NC[C@@H](C(=O)NC(c2ccc(Cl)cc2)c2ccc(F)c(C(F)F)n2)O1 (single isomer, unassigned) [Example 16A]",239
13,"O=C1NC[C@@H](C(=O)NC(c2ccc(Cl)cc2)C2CCCCCC2)O1 (stereo partly drawn) [Example 45, (5S)-N-((4-chlorophenyl)(cyclo-heptyl)methyl)-2-oxooxazolidine-5-carboxamide]",87
14,"N#Cc1ccc(C(NC(=O)[C@@H]2CNC(=O)O2)c2cnc(C(F)(F)F)c(Cl)c2)cc1Cl (single isomer, unassigned) [Example 54A, (S)-N-((R or S)-(3-chloro-4-cyano-phenyl)(5-chloro-6-(trifluoromethyl)pyridin-3-yl)methyl)-2-oxooxazolidine-5-carboxamide]",1.7
15,"CC(C)(C)c1csc(C(NC(=O)[C@@H]2CNC(=O)O2)c2ccc(Cl)cc2)n1 (single isomer, unassigned) [Example 39A, (S)-N-((R or S)-(4-(tert-butyl)thiazol-2-yl)(4-chlorophenyl)methyl)-2-oxooxazolidine-5-carboxamide]",5.1
16,"O=C1NC[C@@H](C(=O)NC(c2ccc(F)c(Cl)c2)c2ccc(Cl)cn2)O1 (single isomer, unassigned) [Example 14A, (S)-N-((R or S)-(3-chloro-4-fluorophenyl)(5-chloropyridin-2-yl)methyl)-2-oxooxazolidine-5-carboxamide]",21
17,"CS(=O)(=O)c1cccc(C(NC(=O)[C@@H]2CNC(=O)O2)c2ccc(Cl)cc2)c1 (stereo partly drawn) [Example 27, (5S)-N-((4-chlorophenyl)(3-(methylsulfonyl)phenyl)methyl)-2-oxooxazolidine-5-carboxamide]",705

row,Structure (SMILES),IC50 [nM]
1,"CC(C)(C)c1csc(C(NC(=O)[C@@H]2CNC(=O)O2)c2ccc(Cl)cc2)n1 (single isomer, unassigned) [Example 39B, (S)-N-((R or S)-(4-(tert-butyl)thiazol-2-yl)(4-chlorophenyl)methyl)-2-oxooxazolidine-5-carboxamide]",64
2,"O=C1NC[C@@H](C(=O)NC(c2ccc(F)c(Cl)c2)c2csc(C(F)(F)F)n2)O1 (single isomer, unassigned) [Example 44A, (S)—N—((R or S)-(3-chloro-4-fluorophenyl)(2-(trifluoromethyl)thiazol-4-yl)methyl)-2-oxooxazolidine-5-carboxamide]",4.6
3,"O=C1NC[C@@H](C(=O)NC(c2ccc(Cl)cc2)c2c[nH]c(C(F)(F)F)n2)O1 (single isomer, unassigned) [Example 17A, (S)-N-((R or S)-(4-chlorophenyl)(2-(trifluoromethyl)-1H-imidazol-4-yl)methyl)-2-oxooxazolidine-5-carboxamide]",593
4,"CC1(C(=O)NC(c2ccc(Cl)cc2)c2ccc(Cl)cc2)CNC(=O)O1 (single isomer, unassigned) [Example 7A, (R or S)—N-(bis(4-chlorophenyl)methyl)-5-methyl-2-oxooxazolidine-5-carboxamide]",14900
5,"Cc1cc(C(NC(=O)[C@@H]2CNC(=O)O2)c2ccc(Cl)cc2)ccc1Cl (single isomer, unassigned) [Example 46B, (S)-N-((R or S)-(4-chloro-3-methylphenyl)(4-chlorophenyl)methyl)-2-oxooxazolidine-5-carboxamide]",1.8
6,"O=C1NC[C@@H](C(=O)NC(c2ccc(F)c(Cl)c2F)[C@@H]2CC[C@@H](C(F)(F)F)CO2)O1 (single isomer, unassigned) [Example 9A]",7.3
7,"N#Cc1cc(C(NC(=O)[C@@H]2CNC(=O)O2)c2ccc(F)c(Cl)c2)ccc1F (single isomer, unassigned) [Example 69, (S)-N-((R or S)-(3-chloro-4-fluorophenyl)(3-cyano-4-fluorophenyl)methyl)-2-oxooxazolidine-5-carboxamide]",16
8,"COc1ccc(C(NC(=O)[C@@H]2CNC(=O)O2)c2ccc(Cl)cc2)cn1 (single isomer, unassigned) [Example 22B, (S)-N-((R or S)-(4-chlorophenyl)(6-methoxypyridin-3-yl)methyl)-2-oxooxazolidine-5-carboxamide]",314
9,"O=C1NC[C@@H](C(=O)NC(c2ccc(F)c(Cl)c2)c2ccc(F)c(Cl)c2)O1 [Example 10, (S)-N-(bis(3-chloro-4-fluorophenyl)methyl)-2-oxooxazolidine-5-carboxamide]",0.7
10,"O=C1NC[C@@H](C(=O)NC(c2ccccc2)c2ccc(Cl)c(Cl)c2)O1 (single isomer, unassigned) [Example 25B, (S)-N-((R or S)-(3,4-dichlorophenyl) (phenyl)methyl)-2-oxooxazolidine-5-carboxamide]",14
11,"O=C1NC[C@@H](C(=O)NC(c2cccc(Cl)c2)C2CC2c2ccccc2)O1 (single isomer, unassigned) [Example 26B, (5S)-N-((R or S)-(3-chlorophenyl) ((cis or trans)-2-phenylcyclopropyl)methyl)-2-oxooxazolidine-5-carboxamide]",70
12,"O=C1NC[C@@H](C(=O)NC(c2ccc(Cl)cc2)c2n[nH]c3ccccc23)O1 (single isomer, unassigned) [Example 15A, (S)-N-((R or S)-(4-chlorophenyl)(1H-indazol-3-yl)methyl)-2-oxooxazolidine-5-carboxamide]",57
13,"O=C1NC[C@@H](C(=O)NC(c2ccc(Cl)cc2)C2CCC(F)(F)C2)O1 (single isomer, unassigned) [Example 57A, (S)-N-((R or S)-(4-chlorophenyl)((R or S)-3,3-difluorocyclopentyl)methyl)-2-oxooxazolidine-5-carboxamide]",3450
14,"O=C1NC[C@@H](C(=O)NC(c2ccc(Cl)cc2)c2ccc(Cl)cc2OC(F)(F)F)O1 (single isomer, unassigned) [Example 47B, (S)-N-((R or S)-(4-chloro-2-(trifluoromethoxy)phenyl)(4-chlorophenyl)-methyl)-2-oxooxazolidine-5-carboxamide]",17
15,"O=C1NC[C@@H](C(=O)NC(c2ccc(Cl)cc2)c2coc(C(F)(F)F)n2)O1 (single isomer, unassigned) [Example 18B, (S)-N-((R or S)-(4-chlorophenyl)(2-(trifluoromethyl)oxazol-4-yl)methyl)-2-oxooxazolidine-5-carboxamide]",272
16,"O=C1NC[C@@H](C(=O)NC(c2ccc(F)c(Cl)c2F)[C@@H]2CC[C@@H](C(F)(F)F)CO2)O1 (single isomer, unassigned) [Example 9D]",2420
17,"O=C1NC[C@@H](C(=O)NC(c2ccc(C(F)(F)F)nc2)c2csc(C(F)(F)F)n2)O1 (stereo partly drawn) [Example 64, (5S)-2-oxo-N-((6-(trifluoromethyl)pyridin-3-yl)(2-(trifluoromethyl)thiazol-4-yl)methyl)oxazolidine-5-carboxamide]",129
